Measured values taken from patent US11752141B2, “Pharmaceutical compositions and methods utilizing neostigmine and an NK-1 antagonist for treating myasthenia gravis” (priority 2017, dated 2023).

Tested on: human subjects
Assay: Phase I single-blind, placebo-controlled study of pyridostigmine bromide with or without aprepitant
Format: in vivo
Settings: single oral dose of aprepitant (up to 125 mg) co-administered with first intolerable dose (FID) of oral pyridostigmine bromide; healthy volunteers; follow-up up to 8 hours
Experimental: The ability of the NK1-antagonists for preventing the adverse effects of pyridostigmine bromide in humans is tested.
A Phase I study is conducted in human subjects receiving a single oral dose of pyridostigmine bromide with or without a single oral dose of aprepitant, as a representative NK1-antagonist. The study was a single center, single-blind, placebo-controlled study.
To be enrolled in the study, participants are to meet the following inclusion/ex elusion criteria:
• 1. Male or female volunteers between the ages of 18 and 60 years inclusive are required to be in good health, to refrain from consuming xanthine, quinine and caffeine containing beverages, and to refrain from prolonged intensive physical exercise during the study conduct. • 2. […] Subjects had to be in good health according to their medical history including personal and family psychiatric history, physical examination, ECG, vital signs, and laboratory tests. […] Subjects had to be able to swallow multiple pills simultaneously. Key Exclusion Criteria • 1. Any clinically relevant acute or chronic disease which could interfere with the subjects' safety during the trial, expose them to undue risk, or interfere with the study objectives. • 2. History or presence of gastrointestinal, hepatic, or renal disease or other condition known to interfere with the absorption, distribution, metabolism or excretion of drugs. • 3. […]

In the case of C[C@@H](O[C@H]1OCCN(Cc2nc(=O)[nH][nH]2)[C@H]1c1ccc(F)cc1)c1cc(C(F)(F)F)cc(C(F)(F)F)c1 [aprepitant, 5-[[(2R,3S)-2-[(1R)-1-[3,5-bis(trifluoromethyl)phenyl]ethoxy]-3-(4-fluorophenyl)-4-morpholinyl]methyl]-1,2-dihydro-3H-1,2,4-triazol-3-one], the “occurrence of gastro-intestinal AEs with pyridostigmine” value is reported as “prevents or attenuates”.
